Results on five compounds are retold here after patent US11584735B2, “Solid forms of a plasma kallikrein inhibitor and salts thereof” (KALVISTA PHARMACEUTICALS LIMITED, priority 2017, dated 2023).

Some results are limits rather than exact numbers.

One data set relates to rats. The conditions noted are these: systemic administration; cited from earlier work.
The test system of a further data set is diabetic rats. The conditions noted are these: cited from earlier work.
The next data set concerns the target Human Factor XIIa (Homo sapiens (Human), UniProt P00748). Description: Determination of the IC50 for FXIIa. The data set is classed as biochemical. The conditions noted are these: 25° C., substrate H-DPro-Phe-Arg-AFC. As for the experimental part: Factor XIIa inhibitory activity in vitro was determined using standard published methods (see e.g. Shori et al., Biochem. Pharmacol., 1992, 43, 1209; Baeriswyl et al., ACS Chem. Biol., 2015, 10 (8) 1861; Bouckaert et al., European Journal of Medicinal Chemistry 110 (2016) 181). Human Factor XIIa (Enzyme Research Laboratories) was incubated at 25° C. with the fluorogenic substrate H-DPro-Phe-Arg-AFC and various concentrations of the test compound. Residual enzyme activity (initial rate of reaction) was determined by measuring the […] and the IC50 value for the test compound was determined.

The target of a further data set is Human KLK1 (Homo sapiens (Human), UniProt P06870). As to the kind of experiment: Determination of the IC50 for KLK1. The conditions noted are these: 25° C., substrate H-DVal-Leu-Arg-AFC. The data set is classed as biochemical. As for the experimental part: KLK1 inhibitory activity in vitro was determined using standard published methods (see e.g. Johansen et al., Int. J. Tiss. Reac. 1986, 8, 185; Shori et al., Biochem. Pharmacol., 1992, 43, 1209; Sturzebecher et al., Biol. Chem. Hoppe-Seyler, 1992, 373, 1025). Human KLK1 (Callbiochem) was incubated at 25° C. with the fluorogenic substrate H-DVal-Leu-Arg-AFC and various concentrations of the test compound. Residual enzyme activity (initial rate of reaction) was determined by measuring the change in optical absorbance at 410 nm and the IC50 value for the test compound was determined.
Human KLK1, sequence (P06870 25-262): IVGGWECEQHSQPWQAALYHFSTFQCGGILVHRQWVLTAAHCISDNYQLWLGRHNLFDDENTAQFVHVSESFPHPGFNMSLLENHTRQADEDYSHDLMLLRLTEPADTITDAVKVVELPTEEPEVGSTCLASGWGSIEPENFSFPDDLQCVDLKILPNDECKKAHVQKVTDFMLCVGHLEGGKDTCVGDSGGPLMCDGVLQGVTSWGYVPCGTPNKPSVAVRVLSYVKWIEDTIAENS

Another data set concerns the target Human FXIa (Homo sapiens (Human), UniProt P03951). Description: Determination of the % inhibition / IC50 for FXIa. In kind it is biochemical. The conditions noted are these: 25° C., substrate Z-Gly-Pro-Arg-AFC.
Data set [1] in a line: In vitro permeability, Caco-2 model. In kind it is in vitro ADME. The conditions noted are these: human, apical to basolateral, 37° C. As for the experimental part:
In vitro permeability was determined using the Caco-2 model for oral absorption. The methodology was adapted from standard published methods (Wang Z, Hop C. E., Leung K. H. and Pang J. (2000) J Mass Spectrom 35(1); 71-76). The Caco-2 monolayers were established in a Biocoat™ HTS fibrillar collagen 24 well multiwell insert system (1.0 μm, PET membrane, Corning 354803) in which 200,000 cells were seeded into each insert and maintained over 3 days before being utilised in the permeability assay. For the assay, 50 μM test compound is added to the apical side of the inserts and incubated for 1 hour at 37° C. on a shaking platform (120 rpm). Apical to basolateral transport was determined by measuring the test article in both compartments by LCMS following the 1 hour incubation. The integrity of the Caco-2 monolayers was confirmed by two methods, (i) comparison of pre- and post-experiment transepithelial electrical resistance (TEER) and, (ii) assessment of Lucifer Yellow flux.
For orientation: Caco-2 cells form a polarised layer with tight junctions and transporters.

In data set [2] the test system is LPS-induced disseminated intravascular coagulation. The conditions noted are these: cited from earlier work.
The subject of a further data set is blood. The note with it: contacting blood with the inhibitor; cited from earlier work.
In data set [3] the test system is intrinsic pathway of coagulation. The conditions noted are these: in vitro; cited from earlier work.
In another data set the target is trypsin. As to the kind of experiment: Enzyme selectivity: trypsin. The data set is classed as biochemical, human. The note with it: substrate at Km concentration.
Data set [4] can be described thus: Metabolic stability in human liver microsomes. In kind it is in vitro ADME. The note with it: human liver microsomes 1 mg/mL, 5 μM test compound, 37° C. On the procedure: The metabolic stability was determined using standard published methods (Obach RS (1999) Drug Metab Dispos 27(11); 1350-135). Human liver microsomes (1 mg/mL; Corning) were incubated with 5 μM test compound at 37° C. on a shaking platform (150 rpm). Samples were taken at 0 and 60 min. The percentage test compound remaining at 60 minutes was determined by ratio of LCMS peak areas.
A general note: Liver microsomes are a subcellular fraction often used to study metabolism.

Another data set deals with thrombin (Homo sapiens (Human), UniProt P00734). The conditions noted are these: read-out: IC50 Thrombin; substrate at Km concentration.
Another data set has as its target plasmin (Homo sapiens (Human), UniProt P00747). The conditions noted are these: read-out: IC50 Plasmin; substrate at Km concentration.

Human Factor XIIa, sequence (P00748 373-615): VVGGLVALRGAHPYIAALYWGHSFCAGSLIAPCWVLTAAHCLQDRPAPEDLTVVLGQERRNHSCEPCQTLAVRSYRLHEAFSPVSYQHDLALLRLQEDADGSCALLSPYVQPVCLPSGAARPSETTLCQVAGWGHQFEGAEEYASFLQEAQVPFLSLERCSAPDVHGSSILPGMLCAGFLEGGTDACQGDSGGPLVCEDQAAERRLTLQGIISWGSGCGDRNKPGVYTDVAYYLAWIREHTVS
Human FXIa, sequence (P03951 388-625): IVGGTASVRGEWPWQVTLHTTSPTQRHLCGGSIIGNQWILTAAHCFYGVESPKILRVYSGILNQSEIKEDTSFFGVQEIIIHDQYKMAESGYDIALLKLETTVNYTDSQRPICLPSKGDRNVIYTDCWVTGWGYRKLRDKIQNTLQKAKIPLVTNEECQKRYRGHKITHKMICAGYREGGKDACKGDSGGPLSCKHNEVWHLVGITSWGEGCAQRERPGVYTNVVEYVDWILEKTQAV
Human FXIa, sequence (P03951 19-387 partner): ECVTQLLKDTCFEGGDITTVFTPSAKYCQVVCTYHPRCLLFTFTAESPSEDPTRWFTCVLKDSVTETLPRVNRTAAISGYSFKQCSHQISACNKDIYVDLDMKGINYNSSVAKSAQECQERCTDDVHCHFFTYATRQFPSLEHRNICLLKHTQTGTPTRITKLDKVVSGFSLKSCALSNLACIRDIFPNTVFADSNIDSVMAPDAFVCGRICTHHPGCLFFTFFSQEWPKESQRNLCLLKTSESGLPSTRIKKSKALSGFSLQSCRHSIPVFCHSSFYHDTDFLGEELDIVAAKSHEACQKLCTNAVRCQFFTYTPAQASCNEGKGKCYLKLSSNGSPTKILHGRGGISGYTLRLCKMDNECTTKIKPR
plasmin, sequence (P00747 581-810): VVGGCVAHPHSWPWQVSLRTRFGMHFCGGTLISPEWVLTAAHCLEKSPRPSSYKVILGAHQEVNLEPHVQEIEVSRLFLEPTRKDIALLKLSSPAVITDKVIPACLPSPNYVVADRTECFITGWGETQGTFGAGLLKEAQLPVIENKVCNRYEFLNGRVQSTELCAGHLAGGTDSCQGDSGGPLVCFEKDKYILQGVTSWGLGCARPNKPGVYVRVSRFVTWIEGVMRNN
plasmin, sequence (P00747 97-580 partner): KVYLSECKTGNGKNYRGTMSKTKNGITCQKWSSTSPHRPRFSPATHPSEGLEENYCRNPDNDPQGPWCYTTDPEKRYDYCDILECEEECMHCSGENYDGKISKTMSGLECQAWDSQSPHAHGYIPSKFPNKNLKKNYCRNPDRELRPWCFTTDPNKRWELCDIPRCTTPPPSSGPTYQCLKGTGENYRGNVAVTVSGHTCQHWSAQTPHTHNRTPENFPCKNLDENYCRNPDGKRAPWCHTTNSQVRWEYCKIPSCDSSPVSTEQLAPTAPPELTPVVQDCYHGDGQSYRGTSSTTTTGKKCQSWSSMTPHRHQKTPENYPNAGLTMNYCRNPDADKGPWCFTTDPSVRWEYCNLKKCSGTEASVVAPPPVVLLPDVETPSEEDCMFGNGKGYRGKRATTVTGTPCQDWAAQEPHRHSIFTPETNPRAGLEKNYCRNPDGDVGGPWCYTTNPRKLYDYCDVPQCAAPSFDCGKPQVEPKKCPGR
Description for plasmin: (§1) Human serine protease enzymes plasmin, thrombin and trypsin were assayed for enzymatic activity using an appropriate fluorogenic substrate. Protease activity was measured by monitoring the accumulation of liberated fluorescence from the substrate over 5 minutes. The linear rate of fluorescence increase per minute was expressed as percentage (%) activity. The Km for the cleavage of each substrate was determined by standard transformation of the Michaelis-Menten equation.
Description for thrombin: as §1
Description for trypsin: as §1

Take `N=C(N)c1ccc(CNC(=O)c2cnn(Cc3ccccc3)c2)cc1` [ASP-440]: in the data set on rats, the Hematoma expansion result is on record as “reduced hematoma expansion”. Besides, the “Effect on retinal vascular permeability and retinal blood flow abnormalities” value in the data set on diabetic rats is “ameliorated both retinal vascular permeability and retinal blood flow abnormalities”.

In general, IC50 refers to the concentration that gives 50% inhibition. What is called Papp is the rate of passage across a membrane or cell layer, normalised by area and donor concentration. For `COCc1nn(Cc2ccc(Cn3ccccc3=O)cc2)cc1C(=O)NCc1nccc(OC)c1F` [Example 41 of WO2016/083820, N-[(3-fluoro-4-methoxypyridin-2-yl)methyl]-3-(methoxymethyl)-1-({4-[(2-oxopyridin-1-yl)methyl]phenyl}methyl)pyrazole-4-carboxamide], the half-maximal inhibitory concentration (IC50) against Human Factor XIIa, on Human KLK1 and on Human FXIa was above 40 µM throughout. This compound also gave a Papp at 1 h, 50 μM in [1] of 9 ×10⁻⁶ cm/s.

Take `Cl.NCC1CCC(C(=O)N[C@@H](Cc2ccccc2)C(=O)Nc2ccc(CC(=O)O)cc2)CC1` (stereo partly shown) [PKSI-527]: in [2], the “Effect on platelet count, fibrinogen level and FDP level” value was “significantly suppressed the decrease in platelet count and fibrinogen level as well as the increase in FDP level”.

As for Ecallantide, the “Activated clotting time (ACT)” value in the data set on blood was “increase in activated clotting time”. In addition, the “Contact activated induced coagulation” value in data set [3] is given as “delay contact activated induced coagulation”.

Consider `COCc1nn(Cc2ccc(Cn3cc(F)ccc3=O)cc2)cc1C(=O)NCc1nccc(OC)c1F` [Compound of Formula A, 1-({4-[(5-fluoro-2-oxopyridin-1-yl)methyl]phenyl}methyl)-N-[(3-fluoro-4-methoxypyridin-2-yl)methyl]-3-(methoxymethyl)pyrazole-4-carboxamide], for which the IC50 against trypsin, at Human Factor XIIa, against Human KLK1, on thrombin, on Human FXIa and on plasmin was above 40 µM in each case. Also, the “% remaining at 60 minutes” value in data set [4] is reported as 25%.
